What all share (assay): DTP human tumour cell line panel, 48 h
The test system of assay [1] is NCI-H226 lung.
Assay [2] deals with NCI-H522 lung.
In assay [3] the test system is PC-3 prostate.
Assay [4] has as its system SK-MEL-5 melanoma.
The test system of assay [5] is MDA-N.
For assay [6], the system named is HS 578T breast.
Assay [7] has as its system COLO 205 colon.
Assay [8] concerns RXF 393 renal.
The subject of assay [9] is SNB-75 CNS.
The subject of assay [10] is M14 melanoma.
The subject of assay [11] is UO-31 renal.
The test system of assay [12] is OVCAR-5 ovarian.
For assay [13], the system named is HL-60(TB) leukemia.
For assay [14], the system named is IGROV1 ovarian.
In assay [15] the test system is NCI/ADR-RES ovarian.
In assay [16] the test system is KM12 colon.
Assay [17] concerns HOP-92 NSCLC.
The subject of assay [18] is OVCAR-8 ovarian.
Assay [19] concerns CAKI-1 renal.
In assay [20] the test system is SK-OV-3 ovarian.

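Five concentrations, 48 hours, 96-well plates. The concentration for full growth arrest is given as TGI.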

Regarding `COc1cc2oc(-c3ccc4c(c3)OCO4)c(OC)c(=O)c2c(OC)c1O`, the TGI in [1] is above 100 µM; in assay [2] it was 59.2 µM; in assay [3], above 100 µM; in [4] it was above 100 µM; in assay [5], above 100 µM; in assay [6], above 100 µM. For the same molecule, the TGI in [7] is above 100 µM; in assay [8] it was above 100 µM; in [9], 97.6 µM; in assay [10], above 100 µM; in [11] it was above 100 µM; in assay [12], above 100 µM. The TGI in assay [13] is 84 µM; in assay [14] it was above 100 µM; in assay [15] it was above 100 µM; in assay [16] it was above 100 µM; in assay [17] it was 89.4 µM; in [18] it was above 100 µM. Also, the TGI in assay [19] and in assay [20] was above 100 µM throughout.

`OC[P+](CO)(CO)C12CC3CC(CC(C3)C1)C2`: the TGI in [1], in assay [2], in assay [3], in assay [4], in assay [5] and in assay [6] was above 100 µM each time. Besides, the TGI in assay [7], in assay [8], in assay [9], in [10], in assay [11] and in [12] was above 100 µM throughout. Further, the TGI in assay [13] is 35.4 µM; in [14], above 100 µM; in assay [15], above 100 µM; in [16], above 100 µM; in assay [17], above 100 µM; in assay [18], above 100 µM. Moreover, the TGI in assay [19] and in assay [20] was above 100 µM each time.

Take `O=C(SC1=NCCN1)c1cccc2ccccc12`: the TGI in assay [1] was above 100 µM; in assay [2] it was 74.9 µM; in assay [3], above 100 µM; in assay [4], above 100 µM; in [5] it was above 100 µM; in assay [6] it was above 100 µM. Also, the TGI is above 100 µM in assay [7]; above 100 µM in assay [8]; 96.8 µM in assay [9]; above 100 µM in [10]; above 100 µM in [11]; above 100 µM in [12]. Further, the TGI in assay [13] is 67 µM; in assay [14] it was above 100 µM; in assay [15], above 100 µM; in assay [16], above 100 µM; in [17], above 100 µM; in assay [18], above 100 µM. Besides, the concentration for total growth inhibition (TGI) in assay [19] and in assay [20] was above 100 µM each time.

Regarding `C=C1CCCC(C)(C)C1CCC1(C)CCC(C(C)C(=O)OC)OO1` (centres undefined), the TGI was above 25 µM in [1]; 12.6 µM in [2]; 7.56 µM in assay [3]; above 25 µM in assay [4]; 7.39 µM in assay [5]; 13.8 µM in assay [6]. Moreover, the TGI is 13.3 µM in [7]; 11.7 µM in assay [8]; 7.56 µM in assay [9]; above 25 µM in [10]; 1.91 µM in assay [11]; above 23.1 µM in assay [12]. In addition, the TGI in assay [13] is 9.16 µM; in assay [14] it was 1.7 µM; in [15], above 18.4 µM; in assay [16], 2.84 µM; in [17], 2.44 µM; in assay [18], above 19.8 µM. For the same molecule, the concentration for total growth inhibition (TGI) in assay [19] came out at 0.749 µM; in assay [20], 9.43 µM.

With `N#Cc1cc([N+](=O)[O-])ccc1NC(=O)/C(=N\NC(=O)c1ccncc1)C(c1cnc2ccc([N+](=O)[O-])cc2n1)[N+](=O)[O-]` (centres undefined), the TGI stood at 7.58 µM in assay [1]; 3.46 µM in assay [2]; 21.4 µM in assay [3]; 2.14 µM in [4]; 1.26 µM in assay [5]; 6.23 µM in assay [6]. Moreover, the TGI in [7] came to 17.9 µM; in assay [8] it was 10.8 µM; in assay [9], 3.83 µM; in [10] it was 3.23 µM; in assay [11] it was 7.6 µM; in assay [12], 22.4 µM. The TGI in assay [13] worked out at 10.6 µM; in assay [14] it was 14.2 µM; in [15], 37 µM; in assay [16], 7.53 µM; in assay [17], 22.6 µM; in assay [18], 9.83 µM. In addition, the TGI in assay [19] is 17.9 µM; in assay [20], 20 µM.

Take `CCC1CCN=C(NS(=O)(=O)c2cc(C)c(Cl)cc2S)N1` (centres undefined): the concentration for total growth inhibition (TGI) in [1] was 73.6 µM; in assay [2] it was 76.9 µM; in [3], above 100 µM; in assay [4], above 100 µM; in assay [5] it was above 100 µM; in assay [6], 92 µM. In addition, the total growth inhibition concentration (TGI) in [7] was above 100 µM; in [8], above 100 µM; in [9], above 100 µM; in assay [10], above 100 µM; in assay [11] it was 82.4 µM; in [12] it was 49.9 µM. Further, the total growth inhibition concentration (TGI) in assay [13] was 82.5 µM; in assay [14], above 100 µM; in [15] it was above 100 µM; in assay [17], above 100 µM; in [18], 44.6 µM; in [19], above 100 µM. Also, the TGI in [20] was above 100 µM.

Consider `CCSc1cc2c(cc1O)CC[C@@H]1[C@@H]2CC[C@]2(C)[C@@H](O)CC[C@@H]12`, for which the TGI in [1] was found to be 35.1 µM; in [2], 19.5 µM; in [3], 18.9 µM; in [4], 22.7 µM; in assay [5], 7.66 µM; in [6], 17.9 µM. The concentration for total growth inhibition (TGI) was 32.3 µM in assay [7]; 39.2 µM in assay [8]; 29.6 µM in [9]; 30.1 µM in assay [11]; 51.2 µM in [12]; above 100 µM in assay [13]. Also, the TGI in [14] was 25 µM; in [15], 26.9 µM; in [16] it was 21.9 µM; in assay [17] it was 24.3 µM; in assay [18], 38.5 µM; in assay [19], 26.4 µM. Further, the total growth inhibition concentration (TGI) in assay [20] was 39.2 µM.

On to `Nc1ccc(Oc2ccc(C3(c4ccc(Oc5ccc(N)cc5)cc4)C4CC5CC(C4)CC3C5)cc2)cc1`, for which the total growth inhibition concentration (TGI) was above 78.4 µM in [1]; above 59.7 µM in assay [2]; above 52.9 µM in [3]; above 100 µM in [4]; 40.4 µM in [5]; above 100 µM in assay [6]. The concentration for total growth inhibition (TGI) in [7] is above 100 µM; in [8] it was 20.9 µM; in assay [9], above 100 µM; in assay [10], 17 µM; in assay [11], 21.4 µM; in [12], above 100 µM. Also, the TGI in assay [13] was 44.3 µM; in [14] it was above 44.5 µM; in assay [15], above 100 µM; in assay [16], 17.7 µM; in assay [17] it was 35.9 µM; in [18] it was above 48.9 µM. In addition, the TGI in [19] was above 83.4 µM.

Consider `CCCN(CCC)C(=S)N/N=C/c1ccccn1`, for which the TGI was 1.14 µM in assay [1]; 1.67 µM in assay [2]; 16.1 µM in assay [3]; 0.954 µM in assay [4]; 14.8 µM in assay [5]; above 100 µM in assay [6]. The TGI is 0.509 µM in [7]; 3.41 µM in assay [8]; 0.413 µM in assay [9]; 0.281 µM in [10]; 4 µM in [11]; 21.4 µM in assay [12]. Also, the TGI was 0.207 µM in [13]; below 0.0354 µM in [15]; 16.1 µM in [16]; 26.7 µM in assay [17]; 11.9 µM in assay [18]; 15.9 µM in assay [19]. The TGI in [20] was 28.6 µM.

For the molecule `CN(C)CCCSc1nc2c(c(=N)n1-c1ccccc1)c(=S)n(-c1ccccc1)c(=S)n2-c1ccccc1`, the TGI in assay [1] is 28.4 µM; in [2], 3.42 µM; in [3], 3.14 µM; in [4], 3.79 µM; in assay [5] it was 3.18 µM; in assay [6] it was above 100 µM. Moreover, the TGI in [7] turned out to be 3.94 µM; in [8] it was 3.06 µM; in [9] it was 3.05 µM; in assay [10], 3.76 µM; in [12], 24.5 µM; in assay [13], 1.75 µM. In addition, the TGI in assay [14] amounted to 3.14 µM; in [15], 7.38 µM; in assay [16] it was 3.5 µM; in [17], 3.24 µM; in [18], 3.2 µM; in [19] it was 3.16 µM. The molecule also returned a TGI in assay [20] of 6.86 µM.

Consider `CC1=NC2c3c(-c4ccc(Cl)cc4)cn(-c4ccc(C)cc4)c3N=CN2N1` (centres undefined), for which the TGI in assay [1] is above 100 µM; in assay [2], above 100 µM; in assay [3] it was above 100 µM; in assay [4], above 100 µM; in assay [5], above 100 µM; in assay [6], 38.4 µM. The TGI in assay [7] is above 100 µM; in assay [8], above 100 µM; in assay [9] it was 97.9 µM; in [10], above 100 µM; in assay [11], above 100 µM; in assay [12], above 100 µM. Further, the TGI was above 100 µM in assay [13]; above 100 µM in assay [14]; above 100 µM in [15]; 63.3 µM in assay [17]; above 100 µM in assay [18]; above 100 µM in assay [19]. Further, the TGI in assay [20] was above 100 µM.

Usually TGI stands for the concentration at which net growth stops.

Source of the values: PubChem BioAssay (NCI).
